Laboratory results published in US8563503B2, “Antibiotic, its nucleotide sequence, methods of construction and uses thereof” (Protein Design Lab. Ltd., priority 2011, dated 2013).
Converted amounts (≈) assume the structure as drawn. “Also recorded” adds a separate entry of the source.

Assays:
[1] = system: Staphylococcus aureus MRSA BAA-42; assay: MIC against the infecting strain (Table 2); assay type: cell-based; settings: Staphylococcus aureus
Description: (§1) (3) Culture Solution • MH Broth Culture Solution: 25 g was added into […] distilled water, heat to dissolve, subpackaged, autoclaved at 116° C. for 20 minutes, and MH Solid Culture Medium, 36 g was added into 1000 ml distilled water, autoclaved at 116° C. for 20 minutes, used for drug sensitive test of Gram-positive and negative aerobic bacteria. • Blood culture solution for Enterococcus faecalis, which was prepared by adding defibration rabbit blood into the MH culture solution by 5-10% and cultured at 37° C. in 5% CO2 for 24 hours. 2. Experimental Methods (1) The Measurement of Minimum Inhibitory Concentration (MIC) • The Minimum Inhibitory Concentration (MIC) of PMC-SA1 was measured by Agar Doubling Dilution Method. The bacterium was inoculated on the surface of agar plate containing different concentration of drugs by multipoint inoculate instrument (Deneley A400). The bacterial content per point was 10^5 CFU/ml. After incubated at 37° C. for 18-24 hours, the result can be observed. The least concentration of drugs in plate culture solution without bacterium growing was Minimum Inhibitory Concentration (MIC) of the drug to the said bacteria. 3. Results

[2] = system: Staphylococcus aureus ATCC 29213; assay: MIC against the infecting strain (Table 2); assay type: cell-based; settings: ATCC29213
Description: as §1

E. coli 02-1-65 [3] = assay: MIC against the infecting strain (Table 2); assay type: cell-based; settings: Escherichia coli, 02165
Description: as §1

[4] = system: Staphylococcus aureus MRSA BAA-42; assay: Protection test in vivo (intravenous injection) of infected mice; parameters: species or system Kungming mice; settings: Staphylococcus aureus
Description: (§2) The drugs used in this embodiment were same with that used in embodiment 4.
(§3) The above drugs were dissolved and diluted by sterilized water, and the injection concentrations of each drug were 10 mg/kg, 5 mg/kg and 2.5 mg/kg.
(§4) After given intraperitoneal injection of fatal dose of above-mentioned bacteria, the mice of each drug experimental group respectively were given once intravenous injection of the drug by 10 mg, 5 mg, 2.5 mg/kg. The results were observed per 24 hours for 7-14 days. The positive result is mice's death.

Enterococcus ATCC 700802 [5] = assay: as above; parameters: species or system Kungming mice; settings: Enterococcus, ATCC700802
Description: as §2, §3, §4

[6] = system: Staphylococcus aureus ATCC 29213; assay: as above; parameters: species or system Kungming mice; settings: Staphylococcus aureus, ATCC29213
Description: as §2, §3, §4

E. coli 02-1-65 [7] = assay: as above; parameters: species or system Kungming mice; settings: Escherichia coli, 02165
Description: as §2, §3, §4

[8] = system: Staphylococcus aureus (MRSA); assay: MIC by Agar Doubling Dilution Method, clinical isolates; assay type: cell-based; settings: Staphylococcus aureus, MRSA
Description: as §1

[9] = system: Staphylococcus epidermidis (MRSE); assay: as above; assay type: cell-based; settings: Staphylococcus epidermidis, MRSE
Description: as §1

Baumanii = assay: as above; assay type: cell-based
Description: as §1

[10] = system: Staphylococcus epidermidis (MSSE strain); assay: as above; assay type: cell-based; settings: Staphylococcus epidermidis
Description: as §1

[11] = system: Staphylococcus aureus (MSSA); assay: as above; assay type: cell-based; settings: Staphylococcus aureus, MSSA
Description: as §1

E. coli = assay: as above; assay type: cell-based; settings: Escherichia coli
Description: as §1

Enterococcus = assay: as above; assay type: cell-based, Enterococcus faecalis; settings: Enterococcus
Description: as §1

Enterococcus ATCC 700802 [12] = assay: MIC against the infecting strain (Table 2); assay type: cell-based, Enterococcus faecalis; settings: ATCC700802
Description: as §1

[13] = system: Staphylococcus epidermidis reference culture No. 26069; assay: Bacteria growth curve (A595 nm cloudiness), Staphylococcus epidermidis; assay type: cell-based; settings: drug 2 μg/ml, 37° C., A595 nm per hour
Description: The bacterium is Staphylococcus epidermidis reference culture No. 26069, purchased from China Center of Culture Collection (National Institute for the Control of Pharmaceutical and Biological Products). 3 microliter of bacterium solution (10^6 CFU/ml level bacterium amount) was added into 10 ml culture solution containing 1% peptone, 1% NaCl, 0.5% yeast extract, 0.5% glucose and 0.1% K2HPO4. Totally four groups were prepared. The first group as control was added 0.3M NaCl+50 mM boric acid buffer fluid by the same volume with that of antibiosis polypeptide liquid added in any experimental groups, the second group was added penicillin G sodium by 2 μg/ml, PMC-SA1 and PMC-SE was added in the other experimental groups by 2 μg/ml (0.3 M NaCl+50 mM boric acid buffer fluid was preservative fluid).
(§5) The solution of above groups was put into 100 ml conical flask, 200 rpm, grew at 37° C. 100 μl was sampled per hour, and added onto 96-pore ELISA plate to measure bacteria grown cloudiness by spectrophotometer (A595 nm) color comparison. The bacteria growth curve was drawn up to compare the bacteriostasis efficacy of the novel antibiotics.

[14] = system: methicillin-resistant Staphylococcus aureus ATCC BAA-42; assay: Bacteria growth curve (A595 nm), comparison of the novel antibiotics; assay type: cell-based; settings: drug 5 μg/ml, 37° C., A595 nm per hour
Description: The following experiment was set for comparing bacteriostasis effects of 6 kinds of the novel antibiotics. The experimental bacteriaum was United States Standard Strain methicillin-resistant Staphylococcus aureus ATCC BAA-42. 5 microliter of bacteria solution (10^6 CFU/ml level bacterium amount) was added into 10 ml culture solution containing 1% peptone, 1% NaCl, 0.5% yeast extract, 0.5% glucose and 0.1% K2HPO4, total of 8 groups were prepared. The first group as control was added 0.3 M NaCl+50 mM boric acid buffer fluid by the same volume as that of antibiosis polypeptide liquid added in any experimental groups, the second group was added penicillin G sodium by 5 μg/ml, PMC-SA1, PMC-SA2, PMC-SA3, PMC-SA4, PMC-SE and PMC-PA were added in the other experimental groups with preservative fluid being 0.3 M NaCl+50 mM boric acid buffer fluid by 5 ug/ml.
as §5, with “and measured” for “to measure”, “antibiosis polypeptide.” for “the novel antibiotics.”

[15] = Immunization of mice, valence of mouse sera by indirect ELISA; assay type: in vivo; settings: from valence of mouse sera
Description: Allosteric peptide of Colicin Ia, i.e. Ia′, PMC-SA1 obtained in embodiment 1, wild-type colicin Ia and the anti-Staphylococcus aureus peptide (ZL01128836.1) which invented by the present inventor were taken respectively to immunize mice. After admixturing with the adjuvant, the above proteins were interaperitonea injected respectively to the mice by 50 μg per mouse for one time of foundational quantity and 50 μg per mouse for one time of additional quantity totally 5 times by two weeks interval. Indirect ELISA detection method was applied to detect the valence of mouse sera (Xiao Yi, et. al., Preparation and preliminary characterization of monoclonal antibodies against Pheromonicin-and-Staphylococcus aureus, Shanxi Medical Journal, 35(1): 6-7, 32 (2006)). The valence of mouse sera which immunized by wild type colicin Ia as well as anti-Staphylococcus aureus polypeptide (ZL01128836.1) was 10^−4 to 10^−5, while the valence of mouse sera which immunized by allosteric peptide of colicin Ia and PMC-SA1 was 10^−2 to 10^−3.

In the case of `CN[C@H](CC(C)C)C(=O)N[C@H]1C(=O)N[C@@H](CC(N)=O)C(=O)N[C@H]2C(=O)N[C@H]3C(=O)N[C@H](C(=O)N[C@H](C(=O)O)c4cc(O)cc(O)c4-c4cc3ccc4O)[C@H](O)c3ccc(c(Cl)c3)Oc3cc2cc(c3O[C@@H]2O[C@H](CO)[C@@H](O)[C@H](O)[C@H]2O[C@H]2C[C@](C)(N)[C@H](O)[C@H](C)O2)Oc2ccc(cc2Cl)[C@H]1O` [Vancomycin], the MIC [1] is reported as 0.5 µg/mL (≈ 0.345 µM), the MIC [2] is reported as 0.5 µg/mL (≈ 0.345 µM) and the MIC (E. coli 02-1-65 [3]) is reported as 128 µg/mL (≈ 88.3 µM). The ED50 [4] was 3.54 mg/kg, the ED50 (Enterococcus ATCC 700802 [5]) was 3.66 mg/kg and the ED50 [6] was 2.42 mg/kg. For the same molecule, the ED50 (E. coli 02-1-65 [7]) was over 40.1 mg/kg, the MIC50 [8] was 0.25 µg/mL (≈ 0.173 µM) and the MIC90 [8] was 1 µg/mL (≈ 0.69 µM). For the same molecule, the MIC ([8]; read-out: Scope of MIC) was 0.004 to 2 µg/mL (≈ 0.00276 to 1.38 µM), the MIC50 [9] was 0.5 µg/mL (≈ 0.345 µM) and the MIC90 [9] was 1 µg/mL (≈ 0.69 µM). The MIC ([9]; read-out: Scope of MIC) was 0.25 to 2 µg/mL (≈ 0.173 to 1.38 µM), the MIC50 (Baumanii) was over 128 µg/mL and the MIC90 (Baumanii) was over 128 µg/mL. It also gave an MIC50 [10] of 0.5 µg/mL (≈ 0.345 µM), an MIC90 [10] of 0.5 µg/mL (≈ 0.345 µM) and an MIC ([10]; read-out: Scope of MIC) of 0.06 to 0.5 µg/mL (≈ 0.0414 to 0.345 µM). It also gave an MIC50 [11] of 0.5 µg/mL (≈ 0.345 µM), an MIC90 [11] of 1 µg/mL (≈ 0.69 µM) and an MIC ([11]; read-out: Scope of MIC) of 0.03 to 1 µg/mL (≈ 0.0207 to 0.69 µM). The MIC50 (E. coli) was over 128 µg/mL, the MIC90 (E. coli) was over 128 µg/mL and the MIC (E. coli; read-out: Scope of MIC) was over 128 µg/mL. The MIC50 (Enterococcus) was 1 µg/mL (≈ 0.69 µM), the MIC90 (Enterococcus) was 2 µg/mL (≈ 1.38 µM) and the MIC (Enterococcus; read-out: Scope of MIC) was 0.5 to 50 µg/mL (≈ 0.345 to 34.5 µM). It also gave an MIC (Enterococcus ATCC 700802 [12]) of over 16 µg/mL.

B1: PMC-SE: Staphylococcus epidermidis pheromone linked to C-terminus of allosteric colicin Ia′; SEQ ID NO. 21; plasmid pBHC-SE (protein)
chain: SDPVRITNPAAESLGYDSDGREIMGVDIYLNPPRVDVFKGTPPAWSSFGNKTIWGGNEWVDDSPTRSDIEKRDKEITAYKNTLSAQQKENENKRTEAGKRLSAAIAAREKDENTLKTLRAGNADAADITRQEFRLLQAELREYGFRTEIAGYDALRLHTESRMLFADADSLRISPREARSLIEQAEKRQKDAQNADKKAADMLAEYERRKGILDTRLSELEKNGGAALAVLDAQQARLLGQQTRNDRAISEARNKLSSVTESLNTARNALTRAEQQLTQQKNTPDGKTIVSPEKFPGRSSTNHSIVVSGDPRFAGTIKITTSAVIDNRANLNYLLSHSGLDYKRNILNDRNPVVTEDVEGDKKIYNAEVAEWDKLRQRLLDARNKITSAESAVNSARNNLSARTNEQKHANDALNALLKEKENIRNQLSGINQKIAEEKRKQDELKATKDAINFTTEFLKSVSEKYGAKAEQLAREMAGQAKGKKIRNVEEALKTYEKYRADINKKINAKDRAAIAAALESVKLSDISSNLNRFSRGLGYAGKFTSLADWITEFGKAVRTENWRPLFVKTETIIAGNAATALVALVFSILTGSALGIIGYGLLMAVTGALIDESLVEKANKFWGIDSVCASYF
modifications: The peptide of PMC-SE
notes: Staphylococcus epidermidis pheromone linked to C-terminus of allosteric colicin Ia′; 21; plasmid pBHC-SE
With B1 the “growth of Staphylococcus epidermidis (bacteria growth curve)” value [13] was “effectively restrained; also recorded: completely restrained” and the “bacteriostasis effect on growth of methicillin-resistant Staphylococcus aureus (bacteria growth curve)” value [14] was “less better”.

B2: allosteric peptide of colicin Ia: wild-type Colicin Ia with mutations G11A, H22R, A26G, V31L and H40K; SEQ ID NO: 36 (protein)
chain: SDPVRITNPAAESLGYDSDGREIMGVDIYLNPPRVDVFKGTPPAWSSFGNKTIWGGNEWVDDSPTRSDIEKRDKEITAYKNTLSAQQKENENKRTEAGKRLSAAIAAREKDENTLKTLRAGNADAADITRQEFRLLQAELREYGFRTEIAGYDALRLHTESRMLFADADSLRISPREARSLIEQAEKRQKDAQNADKKAADMLAEYERRKGILDTRLSELEKNGGAALAVLDAQQARLLGQQTRNDRAISEARNKLSSVTESLNTARNALTRAEQQLTQQKNTPDGKTIVSPEKFPGRSSTNHSIVVSGDPRFAGTIKITTSAVIDNRANLNYLLSHSGLDYKRNILNDRNPVVTEDVEGDKKIYNAEVAEWDKLRQRLLDARNKITSAESAVNSARNNLSARTNEQKHANDALNALLKEKENIRNQLSGINQKIAEEKRKQDELKATKDAINFTTEFLKSVSEKYGAKAEQLAREMAGQAKGKKIRNVEEALKTYEKYRADINKKINAKDRAAIAAALESVKLSDISSNLNRFSRGLGYAGKFTSLADWITEFGKAVRTENWRPLFVKTETIIAGNAATALVALVFSILTGSALGIIGYGLLMAVTGALIDESLVEKANKFWGI
modifications: allosteric peptide of colicin Ia
In the case of B2, the “possibility of causing host allergic reaction relative to anti-Staphylococcus aureus polypeptide” value [15] is reported as “lower one to two order of magnitude”.
